Test [1] concerns E. coli 2252 (COL-resistant). Briefly: Antibacterial MIC/MBC (broth microdilution). It is filed as cell-based, Escherichia coli. The following applies: Escherichia coli, E. coli 2252 (COL-resistant); for MBC: read-out: MBC; for MIC: read-out: MIC. From the text:
(§1) Twelve reference bacterial strains and nine MDR clinically relevant bacterial strains were used in this study. Gram-negative bacteria comprised reference strains E. coli ATCC 25922, K. pneumoniae ATCC 13883, Salmonella enterica serovar Typhimurium CECT 443, P. aeruginosa ATCC 27853, A. baumannii ATCC 19606, C. jejuni ATCC 33560 (ATCC—American Type Culture Collection; CECT—Colección Espanola de Cultivos Tipo); clinical isolates E. coli SA/2, an extended-spectrum β-lactamase (ESBL)-producing strain and P. aeruginosa 33b, a pan-drug-resistant isolate; and animal isolates C. jejuni P5/4, a ciprofloxacin-resistant strain, C. jejuni 4432, C. jejuni 4433, C. jejuni 4448, and E. coli 2252, a COL-resistant strain [42]. Gram-positive strains included S. aureus ATCC 29213, E. faecalis ATCC 29212, S. pyogenes ATCC 19615, and environmental isolates methicillin-resistant S. aureus (MRSA) 66/1 [43], and VAN-resistant enterococci (VRE) E. faecalis B3/101 [44]. Gram-negative fish pathogens Yersinia ruckeri ATCC 29473, Listonella anguillarum ATCC 1924, and Tenacibaculum maritimum ATCC 43397 were also included.
(§2) Strains were kept in Trypto-Casein Soy agar (TSA—Biokar Diagnostics, Allone, Beauvais, France) slants and, before each assay, were sub-cultured in Mueller-Hinton agar (MHA—Biokar Diagnostics, Allone, Beauvais, France). Y. ruckeri ATCC 29473 and L. anguillarum ATCC 1924 were kept in Nutrient Agar (Condalab, Madrid, Spain) and T. maritimum ATCC 43397 was kept in TMM agar (Condalab, Madrid, Spain), and were sub-cultured in the respective culture media before each assay. For S. pyogenes ATCC 19615, CAMHB was supplemented with 3.75% lysed horse blood (LBH—Oxoid, Basingstoke, England), whereas for C. jejuni it was supplemented with 2.5% LHB. Colony-forming unit counts of the inoculum were conducted to determine the initial inoculum size (which should be approximately 5×10^5 CFU/mL). Sterility and growth controls were included in each assay. The 96-well U-shaped untreated polystyrene microtiter plates were incubated for 20 h at 37 degrees C. (42 degrees C. for C. jejuni, in a microaerophilic atmosphere) and the minimal inhibitory concentration (MIC) was determined as the lowest concentration of compound that prevented visible growth. The minimal bactericidal concentration (MBC) was determined by spreading 100 μL of the content of the wells with no visible growth on MH plates. The MBC was determined as the lowest concentration of compound that killed 99.9% of the initial inoculum after overnight incubation at 37 degrees C. Two independent assays were performed for reference and MDR strains.
(§3) An initial screening of the antibacterial activity of the compounds was performed by the Kirby-Bauer disk diffusion method, as recommended by the Clinical and Laboratory Standards Institute (CLSI). Briefly, sterile 6 mm blank paper disks (Oxoid, Basingstoke, England) impregnated with 15 μg of each compound were placed on inoculated MH agar plates. A blank disk with dimethylsulfoxide (DMSO) was used as a negative control. MH inoculated plates were incubated for 18-20 h at 37 degrees C. At the end of incubation, the inhibition halos where measured. The MIC was used to determine the antibacterial activity of each compound, in accordance with the recommendations of the CLSI. Two-fold serial dilutions of the compounds were prepared in Mueller-Hinton Broth 2 (MHB2—Sigma-Aldrich, St. Louis, MO, USA) within the concentration range of 0.062-64 μg/mL. CTX ranging between 0.031-16 μg/mL was used as a control. Sterility and growth controls were included in each assay. Purity checks and colony counts of the inoculum suspensions were also performed in order to ensure that the final inoculum density closely approximates the intended number (5×10^5 CFU/mL). The MIC was determined as the lowest concentration of compound that inhibited growth of the bacteria. The MBC was assessed by spreading 10 μL of culture collected from wells showing no visible growth on MH agar plates. […]
(In general: Broth dilution looks for growth in wells or tubes with falling amounts of substance.)

Test [2] relates to E. coli SA/2 (ESBL). Briefly: Antibacterial MIC/MBC (broth microdilution). Type of test: cell-based, Escherichia coli. The following applies: Escherichia coli.
Description: as §1, §2, §3

Test [3] relates to C. jejuni 4432. Briefly: Antibacterial MIC/MBC (broth microdilution). It is filed as cell-based, Campylobacter jejuni. The following applies: for MBC / MIC: Campylobacter jejuni; for MBC: read-out: MBC; for MIC: read-out: MIC.
Description: as §1, §2, §3

Test [4] has as its system C. jejuni P5/4. Briefly: Antibacterial MIC/MBC (broth microdilution). Type of test: cell-based, Campylobacter jejuni. The following applies: Campylobacter jejuni; for MBC: read-out: MBC; for MIC: read-out: MIC.
Description: as §1, §2, §3

The test system of test [5] is C. jejuni 4448. The test is described as follows: Antibacterial MIC/MBC (broth microdilution). It is filed as cell-based, Campylobacter jejuni. The following applies: for MBC / MIC: Campylobacter jejuni; for MBC: read-out: MBC; for MIC: read-out: MIC.
Description: as §1, §2, §3

In test [6] the test system is C. jejuni 4433. The test is described as follows: Antibacterial MIC/MBC (broth microdilution). It is filed as cell-based, Campylobacter jejuni. The following applies: for MBC / MIC: Campylobacter jejuni; for MBC: read-out: MBC; for MIC: read-out: MIC.
Description: as §1, §2, §3

Test [7] deals with Gram-negative and Gram-positive bacteria. Briefly: Antibacterial activity, whole strain panel. It is filed as cell-based.
Description: as §1, §2, §3

≈ marks a conversion by molar mass, not a printed value.

These results are taken from patent publication US20250002450A1, “CATIONIC STEROID COMPOUNDS, METHOD OF OBTAINING THEREOF, FORMULATIONS COMPRISING THEREOF AND THEIR USES” (UNIVERSIDADE DO PORTO, priority 2021, published 2025).

By MBC is commonly meant the smallest concentration meeting the test's criterion for killing. The MIC is the lowest concentration that inhibits growth of the organism. With `C[C@H](CCC(=O)N1CCN(C(=O)OC(C)(C)C)CC1)[C@H]1CC[C@H]2[C@@H]3CC[C@@H]4C[C@H](O)CC[C@]4(C)[C@H]3C[C@H](O)[C@]12C` [Compound 5, tert-butyl 4-((R)-4-((3R,5R,8R,9S,10S,12S,13R,14S,17R)-3,12-dihydroxy-10,13-dimethylhexadecahydro-1H-cyclopenta[a]phenanthren-17-yl)pentanoyl)piperazine-1-carboxylate], the MBC in test [1], in test [2], in test [3], in test [4], in test [5] and in test [6] was more than 64 µg/mL in each case. Moreover, the MIC in test [1], in test [2], in test [3], in test [4], in test [5] and in test [6] was more than 64 µg/mL in each case.

With `C[C@H](CCC(=O)N1CCNCC1)[C@H]1CC[C@H]2[C@@H]3CC[C@@H]4C[C@H](O)CC[C@]4(C)[C@H]3C[C@H](O)[C@]12C` [Compound 9, (R)-4-((3R,5R,8R,9S,10S,12S,13R,14S,17R)-3,12-dihydroxy-10,13-dimethylhexadecahydro-1H-cyclopenta[a]phenanthren-17-yl)-1-(piperazin-1-yl) pentan-1-one], the MBC in test [1], in test [2], in test [3], in test [4], in test [5] and in test [6] was more than 64 µg/mL throughout. For the same compound, the MIC in test [1], in test [2], in test [3], in test [4], in test [5] and in test [6] was more than 64 µg/mL in each case. Further, in test [7], the “activity against Gram-negative bacteria (in words)” value was “exhibited activities”. Further, the “spectrum of antibacterial activity (in words)” value in test [7] (all bacterial strains tested) is on record as “broad spectrum of activity”.

Take `C[C@H](CCC(=O)NCCNc1ccccc1)[C@H]1CC[C@H]2[C@@H]3CC[C@@H]4C[C@H](O)CC[C@]4(C)[C@H]3C[C@H](O)[C@]12C` [Compound 8, (R)-4-((3R,5R,8R,9S,10S,12S,13R,14S,17R)-3,12-dihydroxy-10,13-dimethylhexadecahydro-1H-cyclopenta[a]phenanthren-17-yl)-N-(2-(phenylamino)ethyl)pentanamide]: the MBC in test [1], in test [2], in test [3], in test [4], in test [5] and in test [6] was more than 64 µg/mL throughout. Further, the minimal inhibitory concentration (MIC) in test [1], in test [2], in test [3], in test [4], in test [5] and in test [6] was more than 64 µg/mL each time.

For `C[C@H](CCC(=O)N1CCOCC1)[C@H]1CC[C@H]2[C@@H]3CC[C@@H]4C[C@H](O)CC[C@]4(C)[C@H]3C[C@H](O)[C@]12C` [Compound 3, (R)-4-((3R,5R,8R,9S,10S,12S,13R,14S,17R)-3,12-dihydroxy-10,13-dimethylhexadecahydro-1H-cyclopenta[a]phenanthren-17-yl)-1-morpholinopentan-1-one], the MBC in test [1], in test [2], in test [3], in test [4], in test [5] and in test [6] was more than 64 µg/mL in each case. The MIC in test [1], in test [2], in test [3], in test [4], in test [5] and in test [6] was more than 64 µg/mL in each case.

As for `CCN(CC)CCNC(=O)CC[C@@H](C)[C@H]1CC[C@H]2[C@@H]3CC[C@@H]4C[C@H](O)CC[C@]4(C)[C@H]3C[C@H](O)[C@]12C` [Compound 6, (R)—N-(2-(diethylamino)ethyl)-4-((3R,5R,8R,9S,10S,12S,13R,14S,17R)-3,12-dihydroxy-10,13-dimethylhexadecahydro-1H-cyclopenta[a]phenanthren-17-yl)pentanamide], the minimal bactericidal concentration (MBC) in test [1], in test [2], in test [3], in test [4], in test [5] and in test [6] was more than 64 µg/mL in each case. Further, the MIC in test [1], in test [2], in test [3], in test [4], in test [5] and in test [6] was more than 64 µg/mL in each case. For the same compound, the “activity against Gram-negative bacteria (in words)” value in test [7] was “exhibited activities”.

Consider `C[C@H](CCC(=O)N1CCCCC1)[C@H]1CC[C@H]2[C@@H]3CC[C@@H]4C[C@H](O)CC[C@]4(C)[C@H]3C[C@H](O)[C@]12C` [Compound 2, (R)-4-((3R,5R,8R,9S,10S,12S,13R,14S,17R)-3,12-dihydroxy-10,13-dimethylhexadecahydro-1H-cyclopenta[a]phenanthren-17-yl)-1-(piperidin-1-yl) pentan-1-one], for which the MBC in test [1], in test [2], in test [3], in test [4], in test [5] and in test [6] was more than 64 µg/mL each time. The MIC was more than 64 µg/mL in test [1]; more than 64 µg/mL in test [2]; 64 µg/mL (≈ 139 µM) in test [3]; more than 64 µg/mL in test [4]; more than 64 µg/mL in test [5]; more than 64 µg/mL in test [6]. Also, the “antibacterial activity (in words)” value in test [3], in test [5] and in test [6] was “showed antimicrobial activity” in each case.
